According to patent US20250169495A1, “COMPOSITIONS AND METHODS FOR CONTROLLING DROSOPHILA FLIES” (Rutgers, The State University of New Jersey, priority 2023, published 2025):

Experiments:
[1] = system: Drosophila suzukii adults; experiment: Multiple choice bioassay #1: anthracnose-induced volatiles, gated traps with blueberries; format: in vivo; details: 50 μL neat volatile added to blueberry fruit in gated trap; 15 traps per arena; 24 h; n=4
Experimental: These bioassays were done in arenas that consisted of a dome cage (60 cm width×60 cm length x 60 cm height; BugDorm-2120 Insect tent; shop.bugdorm.com) (FIG. 1A). Within each arena, 15 gated traps were positioned randomly in a circle (40 cm diameter) at equal distance with each trap 8.4 cm apart along the circumference (FIG. 1A). Each gated trap consisted of 50 mL polystyrene tubes (Fisher Scientific, Nazareth, PA, USA) covered with aluminum foil and sealed with Parafilm®, with a 4 mm-diameter hole in the center of the Parafilm to provide an entrance to flies. All traps had equal quantities (ca. 5 g) of store-bought organic blueberry fruit (n=5); fruit were sterilized with bleach prior to the study (10% bleach for 2 min, rinsed three times in distilled water). One of the 15 traps served as a control (with blueberry fruit only) and the remaining 14 traps had one of the anthracnose volatile compounds added to the blueberry fruit. The 14 compounds tested were: 3-hydroxy-2-butanone, styrene, (E)-2-hexen-1-ol, ethyl 3-hydroxy-3-methylbutanoate, 2-methyl-1-butanol, ethyl propanoate, 2-methyl-1-propanol, diethyl carbonate, 2-methylpropanal, 3-methyl-1-butanol, ethyl 2-methylpropanoate, ethyl butanoate, ethyl (E)-but-2-enoate, and 3-methyl-3 buten-1-ol (see Results). Each volatile (50 μL, neat) was released from a 1 mL polyethylene vial (Globe Scientific Inc., Paramus, NJ, USA) with a piece of cotton placed inside each trap (control traps had vials with cotton but without the volatile). A vial with a cotton ball soaked with deionized water was placed in the middle of the arena to provide flies with water during the experiment. Roughly 300 D. suzukii adults (1:1 male: female ratio) were released inside each arena and the number and sex of flies inside treatment and control traps was recorded after 24 h. The experiment started at 1:00 p.m., was replicated 4 times, and was done in a laboratory under 22+2° C., 55+5% RH, 16:8 (L:D) h.
Data from multiple choice assays on the percent of male and female D. suzukii adults responding to each volatile were compared using ANOVA (Minitab version 17; Minitab Inc., State College, PA, USA). The ANOVA model included treatment, sex, and their interaction as fixed factors and block (replicate) as a random factor. A multi-comparison Tukey test (Minitab) was used to determine differences among treatments. Percent data were arcsine square-root transformed prior to ANOVA. Pairwise choice assays were analyzed using G-tests with William's correction. Non-responders were excluded from the statistical analyses.

[2] = system: Drosophila suzukii adults; experiment: Multiple choice bioassay #2: known and putative repellents; format: in vivo; details: 50 μL neat; six traps per arena; 24 h; n=6
Experimental: Within each arena, six gated traps were positioned randomly in a circle (40 cm diameter) at equal distance with each trap 20 cm apart along the circumference. Each gated trap contained ˜5 g of store-bought organic blueberry fruit (n=5), as described elsewhere herein. One of the six traps served as a control (with blueberry fruit only) and the remaining five traps had one of the repellents added to the blueberry fruit. Each volatile (50 μL, neat) was released from a 1 mL polyethylene vial with a piece of cotton placed inside each trap (control traps had vials with cotton but without the volatile). A vial with a cotton ball soaked with deionized water was placed in the middle of the arena. Roughly 150 D. suzukii adults (1:1 male: female ratio) were released inside each arena and the number and sex of flies inside treatment and control traps was recorded after 24 h. The experiment started at 1:00 p.m., was replicated 6 times, and was done in a laboratory under 22±2° C., 55±5% RH, 16:8 (L:D) h. Data from multiple choice assays on the percent of male and female D. suzukii adults responding to each volatile were compared using ANOVA (Minitab version 17; Minitab Inc., State College, PA, USA). The ANOVA model included treatment, sex, and their interaction as fixed factors and block (replicate) as a random factor. A multi-comparison Tukey test (Minitab) was used to determine differences among treatments. Percent data were arcsine square-root transformed prior to ANOVA. Pairwise choice assays were analyzed using G-tests with William's correction. Non-responders were excluded from the statistical analyses.

For CC(C)CO [2-methyl-1-propanol], the “number of flies captured relative to the control” value [1] was “reduced the number of flies captured relative to the control”.
CC(=O)C(C)O (stereo not shown) [3-hyrdroxy-2-butanone, 3-Hydroxy-2-butanone] was tested, and the “number of flies captured relative to the control” value [1] was “trapped a higher number of flies than the control”.
With CCOC(=O)OCC [diethyl carbonate] the “number of flies captured relative to the control” value [1] was “reduced the number of flies captured relative to the control”.
C=Cc1ccccc1 [styrene] was tested, and the “number of flies captured relative to the control” value [1] was “trapped a higher number of flies than the control”.
With CCOC(=O)CC(C)(C)O [ethyl 3-hydroxy-3-methylbutanoate, Ethyl 3-hydroxy-3-methylbutanoate] the “number of flies captured relative to the control” value [1] was “captured a similar number of flies as the control”.
CC1CCCC2(C)CCCCC12O (stereo not shown) [geosmin] was tested, and the “strength of repellency among the five repellents (rank)” value [2] was “the least repellent”.
In the case of CCOC(=O)C(C)C [ethyl 2-methylpropanoate], the “number of flies captured relative to the control” value [1] is reported as “reduced the number of flies captured relative to the control”.
In the case of CC(C)CCO [3-methyl-1-butanol], the “number of flies captured relative to the control” value [1] is reported as “reduced the number of flies captured relative to the control”.
In the case of CCC/C=C/CO [(E)-2-hexen-1-ol], the “number of flies captured relative to the control” value [1] is reported as “captured a similar number of flies as the control”.
In the case of CC(C)C=O [2-methylpropanal], the “number of flies captured relative to the control” value [1] is reported as “reduced the number of flies captured relative to the control”.
C=C(C)CCO [3-methyl-3-buten-1-ol] was tested, and the “number of flies captured relative to the control” value [1] was “reduced the number of flies captured relative to the control”.
In the case of CCC(C)CO (stereo not shown) [2-methyl-1-butanol], the “number of flies captured relative to the control” value [1] is reported as “captured a similar number of flies as the control”.
CCOC(=O)CC [ethyl propanoate] was tested, and the “number of flies captured relative to the control” value [1] was “reduced the number of flies captured relative to the control”.
